Test results as given in patent US6358885B1, “Substituted phenylheterocyclic herbicides” (Mississippi State University, priority 1992, dated 2002).

Experiments:
barnyardgrass = assay: Test B preemergence/postemergence greenhouse plant response rating 0 to 10; assay type: in vivo, Echinochloa crus-galli; conditions: 0 to 10 scale
How it was run: (§1)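 Postemergence treatment of plants two to eighteen cm tall ran alongside preemergence treatment of planted seed, each using compound in a non-phytotoxic solvent.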

blackgrass = assay: as above; assay type: in vivo, Alopecurus myosuroides; conditions: 0 to 10 scale
How it was run: as §1

crabgrass = assay: as above; assay type: in vivo, Digitaria spp.; conditions: 0 to 10 scale
How it was run: as §1

giant foxtail = assay: as above; assay type: in vivo, Setaria faberii; conditions: 0 to 10 scale
How it was run: as §1

rape = assay: as above; assay type: in vivo, Brassica napus; conditions: 0 to 10 scale
How it was run: as §1

purple nutsedge [1] = assay: as above; assay type: in vivo, Cyperus rotundus; conditions: Rate 50 g/ha, 0 to 10 scale
How it was run: as §1

corn = assay: Test C preemergence/postemergence greenhouse plant response rating 0 to 100; assay type: in vivo, Zea mays; conditions: POSTEMERGENCE
How it was run: (§2)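 Compounds in non-phytotoxic solvent applied preemergence to sandy loam one day after planting, postemergence at the 1–4 leaf stage, or to ~2.5 cm floodwater over silt loam.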

morningglory = assay: as above; assay type: in vivo, Ipomoea hederacea; conditions: POSTEMERGENCE
How it was run: as §2

wheat = assay: as above; assay type: in vivo, Triticum aestivum; conditions: POSTEMERGENCE
How it was run: as §2

wild buckwheat = assay: as above; assay type: in vivo, Polygonum convolvulus; conditions: POSTEMERGENCE
How it was run: as §2

wild oat = assay: as above; assay type: in vivo, Avena fatua; conditions: POSTEMERGENCE
How it was run: as §2

rice = assay: Test C flood test plant response rating 0 to 100; assay type: in vivo, Oryza sativa
How it was run: as §2

dallisgrass = assay: Test G preemergence/postemergence greenhouse plant response rating 0 to 100; assay type: in vivo, Paspalum dilatatum; conditions: 0 to 100 scale
Source text: (§3) Seeds, rhizomes, or plant parts of alfalfa (Medicago ativa), annual bluegrass (Poa annua), bermudagrass (Cynodon dactylon), broadleaf signalgrass (Brachiaria plantaginea), common purslane (Portulaca oleracea), common ragweed (Ambrosia elatior), […] (Paspalum dilatatum), goosegrass (Eleusine indica), guineagrass (Panicum maximum), […] exaltata), johnsongrass (Sorghum halepense), large crabgrass (Digitaria sanguinalis), peanut (Arachis hypoagaea), pitted morningglory (Ipomoea lacunosa), purple nutsedge (Cyperus rotundus), sandbur (Cenchrus echinatus), smooth crabgrass (Digitaria ischaemum) and yellow nutsedge (Cyperus esculentus) were planted into greenhouse pots containing greenhouse planting medium. Each pot contained only one plant species. The test compound was dissolved in a non-phytotoxic solvent and applied preemergence and/or postemergence to the plants. Preemergence applications were made within one day of planting the seeds or plant parts. Postemergence applications were applied when the plants were in the two to four leaf stage (three to twenty cm). Test chemicals were dissolved in a non-phytotoxic solvent and applied preemergence and postemergence to the plants. Untreated control plants and treated plants were placed in the greenhouse and visually evaluated for injury at 13 to 21 days after herbicide application. […] A dash (-) response indicates no test result.

purple nutsedge [2] = assay: as above; assay type: in vivo, Cyperus rotundus; conditions: Rate 125 g/ha, 0 to 100 scale
Source text: as §3

C#CCN1C(=O)COc2cc(F)c(-c3nn4c(c3Cl)CCCC4)cc21 [Compound 34]
Plant response rating, Barnyardgrass (barnyardgrass; POSTEMERGENCE, Rate 10 g/ha): 4
Plant response rating, Barnyardgrass (barnyardgrass; POSTEMERGENCE, Rate 50 g/ha): 5
Plant response rating, Barnyardgrass (barnyardgrass; PREEMERGENCE, Rate 10 g/ha): 3
Plant response rating, Barnyardgrass (barnyardgrass; PREEMERGENCE, Rate 50 g/ha): 4
Plant response rating, Blackgrass (blackgrass; POSTEMERGENCE, Rate 10 g/ha): 4
Plant response rating, Blackgrass (blackgrass; POSTEMERGENCE, Rate 50 g/ha): 6
Plant response rating, Blackgrass (blackgrass; PREEMERGENCE, Rate 10 g/ha): 4
Plant response rating, Blackgrass (blackgrass; PREEMERGENCE, Rate 50 g/ha): 6
Plant response rating, Crabgrass (crabgrass; POSTEMERGENCE, Rate 10 g/ha): 3
Plant response rating, Crabgrass (crabgrass; POSTEMERGENCE, Rate 50 g/ha): 4
Plant response rating, Crabgrass (crabgrass; PREEMERGENCE, Rate 10 g/ha): 3
Plant response rating, Crabgrass (crabgrass; PREEMERGENCE, Rate 50 g/ha): 9
Plant response rating, Giant foxtail (giant foxtail; POSTEMERGENCE, Rate 10 g/ha): 4
Plant response rating, Giant foxtail (giant foxtail; POSTEMERGENCE, Rate 50 g/ha): 5
Plant response rating, Giant foxtail (giant foxtail; PREEMERGENCE, Rate 10 g/ha): 3
Plant response rating, Giant foxtail (giant foxtail; PREEMERGENCE, Rate 50 g/ha): 6
Plant response rating, Rape (rape; POSTEMERGENCE, Rate 10 g/ha): 10
Plant response rating, Rape (rape; POSTEMERGENCE, Rate 50 g/ha): 10
Plant response rating, Rape (rape; PREEMERGENCE, Rate 50 g/ha): 6
Plant response rating, Nutsedge (purple nutsedge [1]; POSTEMERGENCE): 0
Plant response rating, Nutsedge (purple nutsedge [1]; PREEMERGENCE): 0
Plant response rating, Corn (corn; 62 g/ha, 0 to 100 scale): 50
Plant response rating (0 to 100), Corn (corn; Rate 1 g/ha): 20
Plant response rating (0 to 100), Corn (corn; Rate 4 g/ha): 30
Plant response rating (0 to 100), Corn (corn; Rate 16 g/ha): 40
Plant response rating, Morningglory (morningglory; 62 g/ha, 0 to 100 scale): 100
Plant response rating (0 to 100), Morningglory (morningglory; Rate 1 g/ha): 60
Plant response rating (0 to 100), Morningglory (morningglory; Rate 4 g/ha): 100
Plant response rating (0 to 100), Morningglory (morningglory; Rate 16 g/ha): 100
Plant response rating, Wheat (wheat; 62 g/ha, 0 to 100 scale): 50
Plant response rating (0 to 100), Wheat (wheat; Rate 1 g/ha): 20
Plant response rating (0 to 100), Wheat (wheat; Rate 4 g/ha): 30
Plant response rating (0 to 100), Wheat (wheat; Rate 16 g/ha): 40
Plant response rating, Wild buckwheat (wild buckwheat; 62 g/ha, 0 to 100 scale): 100
Plant response rating (0 to 100), Wild buckwheat (wild buckwheat; Rate 4 g/ha): 50
Plant response rating (0 to 100), Wild buckwheat (wild buckwheat; Rate 16 g/ha): 100
Plant response rating, Wild oat (wild oat; 62 g/ha, 0 to 100 scale): 30
Plant response rating (0 to 100), Wild oat (wild oat; Rate 1 g/ha): 10
Plant response rating (0 to 100), Wild oat (wild oat; Rate 4 g/ha): 20
Plant response rating (0 to 100), Wild oat (wild oat; Rate 16 g/ha): 20
Plant response rating (0 to 100), Rice Japonica (rice; POSTEMERGENCE section, flood test, Rate 1 g/ha): 20
Plant response rating (0 to 100), Rice Japonica (rice; POSTEMERGENCE section, flood test, Rate 4 g/ha): 25
Plant response rating (0 to 100), Rice Japonica (rice; Rate 16 g/ha, under POSTEMERGENCE head (flood test species)): 35
Plant response rating Rice Japonica (rice; flood test species listed under POSTEMERGENCE, 62 g/ha, 0 to 100 scale): 90
Plant response rating, Dallisgrass (dallisgrass; POSTEMERGENCE, Rate 125 g/ha): 0
Plant response rating, Dallisgrass (dallisgrass; POSTEMERGENCE, Rate 250 g/ha): 0
Plant response rating, Dallisgrass (dallisgrass; PREEMERGENCE, Rate 125 g/ha): 0
Plant response rating, Dallisgrass (dallisgrass; PREEMERGENCE, Rate 250 g/ha): 80
Plant response rating, Purple Nutsedge (purple nutsedge [2]; POSTEMERGENCE): 20
Plant response rating, Purple Nutsedge (purple nutsedge [2]; PREEMERGENCE): 0
